Laboratory results published in EP4603477A1, “INHIBITORS OF THE CORONAVIRUS ACCESSORY PROTEIN ORF9B” (Consejo Superior De Investigaciones Científicas, priority 2024, dated 2025).

Tested on: THP-1 cells stably integrating and constitutively expressing ORF9b
Assay: Cytokine quantification (Procartaplex multiplex) in THP-1 cells expressing ORF9b
Type: cell-based
Conditions: 1 µM or 5 µM
Method: THP-1 cells stably integrating and constitutively expressing ORF9b were generated as described under "Biochemical and biological activity (2)". Cytokines (IL-1β, IL-18, IL-10, TNF-α) were quantified by means of Procartaplex multiplex assays (InVitrogen, ThermoFisher), following instructions by the supplier. Briefly, capture beads were incubated for 2 h with cleared cell supernatants, washed and incubated with biotinylated detection antibody mix, incubated for 30 min, washed and incubated with Streptavidin-PE for 30 min, washed and data acquired on a Luminex 200 instrument. To ascertain the effect of ORF9b homodimerization inhibitors on ORF9b-mediated cytokine secretion, THP1-1 cells with the above modifications were treated with 1 µM or 5 µM of each of the compounds (final concentrations in cell culture media), and cytokine levels determined in cell culture supernatants. All determinations were performed in triplicate, and analyzed statistically significance in differences by means of a two-tailed Student's t-test. Inhibition of ORF9b-mediated secretion of cytokines was considered significant with p values ≤ 0.05.

SMILES	ORF9b-induced release of IL-1β	ORF9b-induced release of IL-10	ORF9b-induced release of IL-18	ORF9b-induced release of TNF-α
Nc1ccc(F)c(NC(=O)Cc2ccccc2)c1 [Compound 1]	inhibited	inhibited	inhibited	–
Nc1ccc(F)c(NC(=O)c2cccc3ccccc23)c1 [Compound 2, N-(5-Amino-2-fluorophenyl)-1-naphthamide]	inhibited	inhibited	inhibited	–
O=C(Cc1ccc(Cl)cc1)Nc1cc([N+](=O)[O-])ccc1F [Compound 6, 2-(4-Chlorophenyl)-N-(2-fluoro-5-nitrophenyl)acetamide]	inhibited	inhibited	inhibited	–
CC(C)(O)c1coc(S(=O)(=O)NC(=O)Nc2c3c(cc4c2CCC4)CCC3)c1 [MCC950, reference compound]	abrogated	abrogated	abrogated	abrogated
